The record followed here is patent US20240208992A1, “MACROCYCLES AS CFTR MODULATORS” (Idorsia Pharmaceuticals Ltd, priority 2021, published 2024).

The assay addresses human F508del-CFTR (Homo sapiens, UniProt P13569, DEL508-508). The experiment in a line: F508del-CFTR cell surface expression (corrector activity), DiscoveRx ß-galactosidase complementation chemiluminescence assay in recombinant U2OS cell line.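 On all read-outs here: U2OS cells co-expressing ProLink-tagged F508del-CFTR and a membrane-anchored enzyme acceptor, where more surface CFTR restores β-galactosidase activity measured by chemiluminescence.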 The settings on record: U2OS cells, 16h compound incubation; for EC50: EC50, F508del-CFTR cell surface expression, geomean of several measurements; for Emax: U2OS, in relation to the Emax of the corrector lumacaftor (=100%), arithmetic mean.

Sequence of human F508del-CFTR (P13569 with tags, fused parts or gaps DEL508-508): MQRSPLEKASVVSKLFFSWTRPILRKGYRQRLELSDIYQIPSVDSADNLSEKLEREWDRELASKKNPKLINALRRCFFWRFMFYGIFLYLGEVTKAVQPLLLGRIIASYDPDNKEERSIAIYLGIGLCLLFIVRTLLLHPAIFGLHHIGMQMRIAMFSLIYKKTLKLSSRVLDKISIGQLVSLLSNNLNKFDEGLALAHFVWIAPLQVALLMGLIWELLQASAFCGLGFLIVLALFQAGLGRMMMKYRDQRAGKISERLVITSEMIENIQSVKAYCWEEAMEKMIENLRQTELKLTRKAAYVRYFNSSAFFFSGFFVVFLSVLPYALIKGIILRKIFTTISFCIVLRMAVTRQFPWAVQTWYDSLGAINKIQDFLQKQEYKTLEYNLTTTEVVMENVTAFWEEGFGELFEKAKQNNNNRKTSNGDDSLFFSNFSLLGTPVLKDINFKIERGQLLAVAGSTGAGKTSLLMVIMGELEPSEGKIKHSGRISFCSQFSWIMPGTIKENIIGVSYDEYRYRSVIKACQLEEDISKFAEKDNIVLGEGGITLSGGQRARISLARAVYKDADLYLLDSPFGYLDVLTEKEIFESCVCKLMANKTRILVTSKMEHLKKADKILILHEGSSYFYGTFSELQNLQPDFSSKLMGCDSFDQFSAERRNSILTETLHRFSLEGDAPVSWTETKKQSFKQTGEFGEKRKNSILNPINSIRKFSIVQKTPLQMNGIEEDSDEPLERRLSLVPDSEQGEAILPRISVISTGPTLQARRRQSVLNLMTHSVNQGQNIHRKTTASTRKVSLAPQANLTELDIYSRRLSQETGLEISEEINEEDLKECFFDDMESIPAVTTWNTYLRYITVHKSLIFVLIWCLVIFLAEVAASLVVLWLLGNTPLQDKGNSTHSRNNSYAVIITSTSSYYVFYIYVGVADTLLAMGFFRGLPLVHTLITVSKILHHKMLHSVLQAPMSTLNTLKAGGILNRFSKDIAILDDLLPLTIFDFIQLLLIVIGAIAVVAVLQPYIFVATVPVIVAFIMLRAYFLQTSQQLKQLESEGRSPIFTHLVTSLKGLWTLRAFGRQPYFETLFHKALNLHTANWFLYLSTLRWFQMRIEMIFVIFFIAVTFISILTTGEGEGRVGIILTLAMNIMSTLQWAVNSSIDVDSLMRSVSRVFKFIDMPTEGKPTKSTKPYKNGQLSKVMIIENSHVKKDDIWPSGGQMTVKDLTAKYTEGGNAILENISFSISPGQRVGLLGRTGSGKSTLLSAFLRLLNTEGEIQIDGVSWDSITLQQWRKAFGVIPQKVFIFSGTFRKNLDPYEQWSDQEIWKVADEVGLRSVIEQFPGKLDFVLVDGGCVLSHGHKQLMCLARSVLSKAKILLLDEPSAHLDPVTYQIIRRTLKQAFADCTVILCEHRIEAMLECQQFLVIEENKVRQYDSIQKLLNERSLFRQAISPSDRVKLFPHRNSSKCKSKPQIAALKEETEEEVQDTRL

The EC50 is the midpoint of the concentration-response curve. Usually Emax stands for the maximal effect, on the per cent scale that the assay sets. With `Cc1cc2c3c(ccc2cn1)OC[C@@H](Cc1ccccc1)NC(=O)[C@H]1CCCCN1C(=O)[C@H](CC(C)C)N(C)C(=O)C[C@@H](C(=O)NCCn1nnc(C2CC2)n1)NC3=O` [Example 823, (9S,13S,19aR,22R)-22-benzyl-N-(2-(5-cyclopropyl-2H-tetrazol-2-yl)ethyl)-13-isobutyl-5,12-dimethyl-7,11,14,20-tetraoxo-7,8,9,10,11,12,13,14,17,18,19,19a,20,21,22,23-hexadecahydro-16H-pyrido[2′,1′:6,7][1]oxa[4,7,10,14]tetraazacycloheptadecino[16,17-f]isoquinoline-9-carboxamide], the EC50 stood at 241 nM and the Emax came to 366%.
Taken in the same sequence, the figures for `Cc1cc2c3c(ccc2cn1)OC[C@@H](Cc1ccccc1)NC(=O)[C@@H](C)N(C)C(=O)[C@H](CC(C)C)N(C)C(=O)C[C@@H](C(=O)NCCc1cc(C)no1)NC3=O` [Example 824, (3S,7S,10R,13R)-13-benzyl-7-isobutyl-6,9,10,20-tetramethyl-N-(2-(3-methylisoxazol-5-yl)ethyl)-1,5,8,11-tetraoxo-1,2,3,4,5,6,7,8,9,10,11,12,13,14-tetradecahydro-[1]oxa[4,7,10,14]tetraazacycloheptadecino[16,17-f]isoquinoline-3-carboxamide] were 674 nM and 354%.
For the compound `COc1cc(CCNC(=O)[C@@H]2CC(=O)N(C)[C@@H](CC(C)C)C(=O)N(C)[C@H](C)C(=O)N[C@H](Cc3ccccc3)COc3ccc4cnc(C)cc4c3C(=O)N2)on1` [Example 825, (3S,7S,10R,13R)-13-benzyl-7-isobutyl-N-(2-(3-methoxyisoxazol-5-yl)ethyl)-6,9,10,20-tetramethyl-1,5,8,11-tetraoxo-1,2,3,4,5,6,7,8,9,10,11,12,13,14-tetradecahydro-[1]oxa[4,7,10,14]tetraazacycloheptadecino[16,17-f]isoquinoline-3-carboxamide], the EC50 is 353 nM and the Emax came out at 388%.
`Cc1cc2c3c(ccc2cn1)OC[C@@H](Cc1ccccc1)NC(=O)[C@@H](C)N(C)C(=O)[C@H](CC(C)C)N(C)C(=O)C[C@@H](C(=O)NCCc1nc(C2CC2)no1)NC3=O` [Example 826, (3S,7S,10R,13R)-13-benzyl-N-(2-(3-cyclopropyl-1,2,4-oxadiazol-5-yl)ethyl)-7-isobutyl-6,9,10,20-tetramethyl-1,5,8,11-tetraoxo-1,2,3,4,5,6,7,8,9,10,11,12,13,14-tetradecahydro-[1]oxa[4,7,10,14]tetraazacycloheptadecino[16,17-f]isoquinoline-3-carboxamide]: the EC50 stood at 283 nM and the Emax came to 340%.
In the same order, the values of `COc1cc(CCNC(=O)[C@@H]2CC(=O)N(C)[C@@H](CC(C)C)C(=O)N(C)[C@H](CN3CCC(F)(F)C3)C(=O)N[C@H](Cc3ccccc3)COc3cnc4ccc(F)cc4c3C(=O)N2)on1` [Example 827, (3S,7S,10R,13R)-13-benzyl-10-((3,3-difluoropyrrolidin-1-yl)methyl)-20-fluoro-7-isobutyl-N-(2-(3-methoxyisoxazol-5-yl)ethyl)-6,9-dimethyl-1,5,8,11-tetraoxo-1,2,3,4,5,6,7,8,9,10,11,12,13,14-tetradecahydro-[1]oxa[4,7,10,14]tetraazacycloheptadecino[17,16-c]quinoline-3-carboxamide] are 54 nM and 379%.
`COc1nc(C)cc2c1C(=O)N[C@H](C(=O)NC[C@@H](O)c1ccccc1)CC(=O)N(C)[C@@H](CC(C)C)C(=O)N(C)[C@H](CC(C)C)C(=O)N[C@H](Cc1ccccc1)CO2` [Example 828, (3R,6R,9S,13S)-3-benzyl-N-((S)-2-hydroxy-2-phenylethyl)-6,9-diisobutyl-16-methoxy-7,10,18-trimethyl-5,8,11,15-tetraoxo-2,3,4,5,6,7,8,9,10,11,12,13,14,15-tetradecahydropyrido[3,4-p][1]oxa[4,7,10,14]tetraazacycloheptadecine-13-carboxamide]: the EC50 is 299 nM and the Emax amounted to 317%.
In the same order, the values of `CC(C)C[C@H]1C(=O)N2CCCC[C@@H]2C(=O)N[C@H](Cc2ccccc2)COc2ccc3ncc(F)cc3c2C(=O)N[C@H](C(=O)NCCn2nnc(C3CC3)n2)CC(=O)N1C` [Example 829, (9S,13S,19aR,22R)-22-benzyl-N-(2-(5-cyclopropyl-2H-tetrazol-2-yl)ethyl)-5-fluoro-13-isobutyl-12-methyl-7,11,14,20-tetraoxo-7,8,9,10,11,12,13,14,17,18,19,19a,20,21,22,23-hexadecahydro-16H-pyrido[2′,1′:6,7][1]oxa[4,7,10,14]tetraazacycloheptadecino[16,17-f]quinoline-9-carboxamide] are 142 nM and 320%.
Consider `COCCn1cc(CCNC(=O)[C@@H]2CC(=O)N(C)[C@@H](CC(C)C)C(=O)N(C)C3(CC3)C(=O)N[C@H](Cc3ccccc3)COc3cnc4ccc(F)cc4c3C(=O)N2)cn1` [Example 830, (3′S,7′S,13′R)-13′-benzyl-20′-fluoro-7′-isobutyl-N-(2-(1-(2-methoxyethyl)-1H-pyrazol-4-yl)ethyl)-6′,9′-dimethyl-1′,5′,8′,11′-tetraoxo-2′,3′,4′,5′,6′,7′,8′,9′,11′,12′,13′,14′-dodecahydro-1′H-spiro[cyclopropane-1,10′-[1]oxa[4,7,10,14]tetraazacycloheptadecino[17,16-c]quinoline]-3′-carboxamide], for which the concentration for a half-maximal effect (EC50) amounted to 1040 nM and the maximal effect (Emax) turned out to be 310%.
Take `COc1nccc2c1C(=O)N[C@H](C(=O)NCC(F)(F)c1nc(C3CC3)no1)CC(=O)N(C)[C@@H](CC(C)C)C(=O)N1CCCC[C@@H]1C(=O)N[C@H](Cc1ccccc1)CO2` [Example 831, (7S,11S,17aR,20R)-20-benzyl-N-(2-(3-cyclopropyl-1,2,4-oxadiazol-5-yl)-2,2-difluoroethyl)-11-isobutyl-4-methoxy-10-methyl-5,9,12,18-tetraoxo-5,6,7,8,9,10,11,12,15,16,17,17a,18,19,20,21-hexadecahydro-14H-dipyrido[2,1-f:3′,4′-p][1]oxa[4,7,10,14]tetraazacycloheptadecine-7-carboxamide]: the EC50 was found to be 491 nM and the Emax was 231%.
In the same order, the values of `COc1nccc2c1C(=O)N[C@H](C(=O)NCCn1nc3ccccc3n1)CC(=O)N(C)[C@@H](CC(C)C)C(=O)N1CCCC[C@@H]1C(=O)N[C@H](Cc1ccccc1)CO2` [Example 832, (7S,11S,17aR,20R)-N-(2-(2H-benzo[d][1,2,3]triazol-2-yl)ethyl)-20-benzyl-11-isobutyl-4-methoxy-10-methyl-5,9,12,18-tetraoxo-5,6,7,8,9,10,11,12,15,16,17,17a,18,19,20,21-hexadecahydro-14H-dipyrido[2,1-f:3′,4′-p][1]oxa[4,7,10,14]tetraazacycloheptadecine-7-carboxamide] are 518 nM and 367%.
On to `COc1nccc2c1C(=O)N[C@H](C(=O)NCCn1nnc(C3CC3)n1)CC(=O)N(C)[C@@H](CC(C)C)C(=O)N1CCCC[C@@H]1C(=O)N[C@H](Cc1ccccc1)CO2` [Example 833, (7S,11S,17aR,20R)-20-benzyl-N-(2-(5-cyclopropyl-2H-tetrazol-2-yl)ethyl)-11-isobutyl-4-methoxy-10-methyl-5,9,12,18-tetraoxo-5,6,7,8,9,10,11,12,15,16,17,17a,18,19,20,21-hexadecahydro-14H-dipyrido[2,1-f:3′,4′-p][1]oxa[4,7,10,14]tetraazacycloheptadecine-7-carboxamide], for which the EC50 amounted to 615 nM and the Emax was 411%.
